Legend:
[1] = target: T1, human BVR (Homo sapiens, UniProt P53004); assay: optical titration, difference absorption; type: binding; conditions: 5 mM NADP+, 200 mM Tris-HCl pH 8.75, 28 °C; two biliverdins bound
T1 construct: gene BLVRA; C-terminal His tag (pET21a(+)), codon-optimized synthetic gene, E. coli BL21(DE3)
T1 sequence (P53004 1-296 limits assumed): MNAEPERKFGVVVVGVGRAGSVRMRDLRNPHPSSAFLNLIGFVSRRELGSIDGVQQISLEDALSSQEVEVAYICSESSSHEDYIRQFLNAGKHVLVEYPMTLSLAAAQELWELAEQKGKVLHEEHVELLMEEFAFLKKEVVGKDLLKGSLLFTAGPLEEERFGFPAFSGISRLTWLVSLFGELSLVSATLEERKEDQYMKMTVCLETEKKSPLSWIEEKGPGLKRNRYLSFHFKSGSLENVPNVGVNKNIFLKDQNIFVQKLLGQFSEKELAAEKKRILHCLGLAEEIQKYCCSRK

[2] = target: T2, Syn BVR (Synechocystis sp. PCC 6803, UniProt P72782); assay: X-ray crystal structure, co-crystal, […] Å; also optical titration; type: binding; conditions: ternary complex with NADP+; two stacked biliverdins (proximal and distal) in active site
T2 construct: gene bvdR; full length, 328 residues; N-terminal His6 tag (pET15b), E. coli C41(DE3); tag cut with thrombin for crystals
T2 sequence (P72782 entry or part of it): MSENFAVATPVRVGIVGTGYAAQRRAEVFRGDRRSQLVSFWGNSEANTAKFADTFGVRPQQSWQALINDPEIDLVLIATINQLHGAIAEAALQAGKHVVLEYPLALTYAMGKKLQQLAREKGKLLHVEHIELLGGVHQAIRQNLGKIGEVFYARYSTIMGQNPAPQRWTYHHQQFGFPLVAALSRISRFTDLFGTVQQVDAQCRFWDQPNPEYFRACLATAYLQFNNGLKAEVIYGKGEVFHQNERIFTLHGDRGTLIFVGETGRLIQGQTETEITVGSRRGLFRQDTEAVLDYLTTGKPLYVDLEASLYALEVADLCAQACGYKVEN

[3] = target: T3, rat BVR (Rattus norvegicus, UniProt P46844); assay: optical titration, difference absorption; type: binding; conditions: 5 mM NADP+, 200 mM Tris-HCl pH 8.75, 28 °C; two biliverdins bound
T3 construct: gene Blvra; C-terminal His tag (pET21a-rat bvr), E. coli BL21(DE3)
T3 sequence (P46844 1-295 limits assumed): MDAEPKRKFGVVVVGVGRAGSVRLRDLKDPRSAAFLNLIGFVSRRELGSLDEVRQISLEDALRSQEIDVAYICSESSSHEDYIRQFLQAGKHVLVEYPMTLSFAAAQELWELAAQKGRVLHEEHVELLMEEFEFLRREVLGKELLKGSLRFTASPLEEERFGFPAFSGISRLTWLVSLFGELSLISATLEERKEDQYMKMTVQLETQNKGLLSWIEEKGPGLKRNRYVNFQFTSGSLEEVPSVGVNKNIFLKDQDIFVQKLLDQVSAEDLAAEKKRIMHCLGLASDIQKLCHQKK

[4] = target: T2, Syn BVR; assay: reduction of biliverdin in crystal and solution; type: biochemical; conditions: biliverdin as co-substrate; crystallization solution

| SMILES | optical titration, difference absorption [1] | X-ray crystal structure, co-crystal, 2.6 Å; also optical titration [2] | optical titration, difference absorption [3] | reduction of biliverdin in crystal and solution [4] |
| --- | --- | --- | --- | --- |
| C=CC1=C(C)/C(=C/c2[nH]c(/C=C3N=C(/C=C4\NC(=O)C(C)=C4C=C)C(C)=C\3CCC(=O)O)c(CCC(=O)O)c2C)NC1=O [biliverdin IXα] | two BV molecules bound in both human and rat BVRs | two BV molecules are bound to the catalytic cleft between the two domains | two BV molecules bound in both human and rat BVRs |  |
| NC(=O)C1=CN([C@@H]2O[C@H](COP(=O)(O)OP(=O)(O)OC[C@H]3O[C@@H](n4cnc5c(N)ncnc54)[C@H](OP(=O)(O)O)[C@@H]3O)[C@@H](O)[C@H]2O)C=CC1 [NADPH] |  |  |  | BV could be rapidly (as in the mixing time) reduced to BR by addition of NADPH |
